Reference: PMC7279487, “Dual Target Ligands with 4-tert-Butylphenoxy Scaffold as Histamine H3 Receptor Antagonists and Monoamine Oxidase B Inhibitors” (International Journal of Molecular Sciences, 2020)

Assays:
[1] = test system: neuroblastoma SH-SY5Y cells; assay: neuroprotection in H2O2-treated SH-SY5Y cells (MTS); format: cell-based; conditions: 50 µM; H2O2 300 µM; 24 h
Protocol: The used reference cytostatic drug doxorubicin (DX) decreased cell viability <50% under the same conditions at very low concentrations of 0.2 and 0.05 µM. […] Oxidative damage was induced by very high toxic levels of hydrogen peroxide (H2O2; 300 µM), the popular cell model for PD research, in neuroblastoma SH-SY5Y cell line. […] Salsolinol (SAL) was used at a concentration of 50 µM as the reference compound with the proven neuroprotection activity.
SH-SY5Y cells were seeded in microplate at a concentration of 2.5 × 10^4 cells/well in 100 μL culture medium and cultured for 24 h at 37 C and 5% CO2 to reach 70% confluence. […] (R,S)-salsolinol (purity ≥ 99%) was obtained from Cayman Chemical (Ann Arbor, MI, USA). Next, H2O2 was added at final concentration 300 μM and the cells were placed into the incubator. After 24 h of compounds co-incubation with H2O2, the CellTiter 96®AQueous Non-Radioactive Cell Proliferation Assay (MTS) labeling mixture was added to each well, and the microplates were incubated under the same conditions for 5 h. The absorbance was measured using a microplate reader EnSpire (PerkinElmer, Waltham, MA USA) at 490 nm. All measurements were performed in triplicate, and results are shown as mean ± SD.

hH3R = conditions: read-out: hH3R Ki; cited from earlier work
[2] = target: T1, human histamine H3 receptor (hH3R) (Homo sapiens, UniProt Q9Y5N1); assay: radioligand displacement binding assay, [3H]Nα-methylhistamine, HEK293 cells stably expressing hH3R; conditions: HEK293 cells stably expressing human H3R, mean (95% CI)
T1 construct: expressed in transfected cells
Protocol: [^3H]N^α-methylhistamine was used as a radioligand.
The radioligand displacement binding assay was carried out in HEK-293 cells stably expressing the recombinant hH3R as described by Kottke et al. with slight modifications. […] Obtained data from at least three experiments (in at least duplicates) were analyzed with GraphPad Prism 6.1 (San Diego, CA, USA) using nonlinear regression (one-site competition on logarithmic scale), and Ki values were transformed from IC50 according to Cheng-Prusoff. Statistical analysis was performed on −log Ki values.

hMAO B [3] = target: T2, hMAO B (Homo sapiens, UniProt P27338); assay: hMAO B inhibition, fluorometric Amplex Red MAO assay; format: biochemical; conditions: for IC50: mean ± SEM of 2-5 independent experiments, p-tyramine 200 μM
T2 construct: purchased Sigma Aldrich M7441
T2 sequence (P27338 1-520): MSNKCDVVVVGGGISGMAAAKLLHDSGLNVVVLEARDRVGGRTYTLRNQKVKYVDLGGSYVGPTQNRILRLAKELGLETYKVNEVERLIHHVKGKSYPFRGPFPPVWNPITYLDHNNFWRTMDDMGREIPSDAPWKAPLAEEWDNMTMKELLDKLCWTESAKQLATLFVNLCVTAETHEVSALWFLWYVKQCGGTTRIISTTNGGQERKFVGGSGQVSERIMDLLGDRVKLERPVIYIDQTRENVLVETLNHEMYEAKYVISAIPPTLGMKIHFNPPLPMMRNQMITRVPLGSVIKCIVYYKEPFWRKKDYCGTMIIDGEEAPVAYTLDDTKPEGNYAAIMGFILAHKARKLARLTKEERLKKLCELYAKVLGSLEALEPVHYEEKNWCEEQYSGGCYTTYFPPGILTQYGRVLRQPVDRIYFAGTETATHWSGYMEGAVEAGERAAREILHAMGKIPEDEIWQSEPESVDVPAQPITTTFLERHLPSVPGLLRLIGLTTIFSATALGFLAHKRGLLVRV

hMAO B [4] = target: T2, hMAO B; assay: hMAO B reversibility studies; format: biochemical; conditions: inhibitor at IC80; for effect of 30 min preincubation with enzyme on hMAO B inhibition: with vs without preincubation; for type of hMAO B inhibition (reversible or irreversible): without preincubation, compared with safinamide and rasagiline
Protocol: Reversibility of MAO B inhibitors was tested as described previously with slight modification. Two experiments were performed simultaneously. In the first experiment, inhibitors (in concentrations corresponding to their IC80 values) were incubated with the enzyme and p-tyramine (10 μM) for 22 min (measuring fluorescence every two minutes).

human MAO A = target: T3, human MAO A (Homo sapiens, UniProt P21397); assay: hMAO A inhibition, fluorometric Amplex Red MAO assay; format: biochemical; conditions: for IC50: mean ± SEM, p-tyramine 200 μM; for inhibition at 10 µM: percent of inhibition at 10 μM, mean of two independent experiments, read-out: MAO A (%Inh.)
T3 construct: purchased Sigma Aldrich M7316
T3 sequence (P21397 1-527): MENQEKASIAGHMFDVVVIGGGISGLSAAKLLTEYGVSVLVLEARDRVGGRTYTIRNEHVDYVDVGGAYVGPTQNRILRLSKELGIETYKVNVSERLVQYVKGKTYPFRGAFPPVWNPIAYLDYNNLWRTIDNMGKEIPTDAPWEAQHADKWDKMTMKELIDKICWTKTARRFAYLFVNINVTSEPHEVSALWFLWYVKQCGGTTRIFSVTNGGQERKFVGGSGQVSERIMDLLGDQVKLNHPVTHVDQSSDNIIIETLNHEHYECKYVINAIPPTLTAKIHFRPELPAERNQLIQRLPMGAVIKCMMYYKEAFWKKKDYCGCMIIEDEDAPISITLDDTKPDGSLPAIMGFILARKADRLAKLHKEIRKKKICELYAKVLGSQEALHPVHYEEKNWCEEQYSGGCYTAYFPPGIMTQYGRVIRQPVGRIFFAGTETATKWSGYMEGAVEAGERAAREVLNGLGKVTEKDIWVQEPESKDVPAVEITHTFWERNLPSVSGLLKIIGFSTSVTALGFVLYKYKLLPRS
Protocol: Inhibitory potency of compounds on MAO isoenzymes were carried out by a fluorometric method with a commercial Amplex™ Red Monoamine Oxidase Assay Kit (ThermoFisher Scientific A12214, Waltham, MA, USA) as described previously. For all tests, recombinant human MAO B and MAO A (from Sigma AldrichM7441 and M7316, Darmstadt, Germany) were used. Inhibitors’ activity was measured in the presence of p-tyramine (200 μM).
[…] […] All calculations were made in Microsoft Excel and GraphPadPrism software. All experiments were performed in duplicate, and data are expressed as mean ± SEM of 2–5 independent experiments.

hMAO B [5] = target: T2, hMAO B; assay: hMAO B kinetic studies (Michaelis-Menten, Lineweaver-Burk); format: biochemical
Protocol: Results from the kinetic experiment were used for determination of Michaelis–Menten curves (Figure 4A,C). […] From Michaelis–Menten curves, Vmax and KM values were fitted (Table 2). For both compounds, Vmax values decreased curvilinearly and KM values increased curvilinearly with the increased inhibitor concentrations.
The mode of the inhibition was tested according to the standard procedure described in Reversibility Studies using different concentrations of the substrate. […] Substrate was used in six concentrations: […], 0.1 mM, 0.5 mM, 1 mM, 1.5 mM, and 2 mM. After the experiment, velocities were calculated and put on the graph (y-axis) against the concentration of the substrate (x-axis). From the Michaelis–Menten plot Vmax, KM, and α values were calculated for different concentrations of the inhibitor. Double-reciprocal plot (Lineweaver–Burk plot) were prepared to display the data.
The α values for different modes of reversible inhibition as well as their diagnostic signature on […]
The α value for compound 9 was calculated by GraphPad Prism software from the nonlinear regression curves using following equation for mixed- […]
v = Vmax*[S] / [S]*(1+ [I]/ αKi) + KM*(1+ [I]/Ki) (1) v – velocity of enzyme reaction. Vmax - maximum velocity (at infinite substrate concentration); Ki – dissociation constant for Enzyme-Inhibitor complex (in the enzymology literature other symbols can be used such as: Ki, Kii , KEI etc.); αKi – dissociation constant for Enzyme-Substrate-Inhibitor complex (in the literature also under the symbols: Ki’, Kis and KES); KM – Michaelis-Menten constant; [I]– concentration of the inhibitor; [S] – concentration of the substrate [Ref S1].
Table S1. Relation between inhibition modality, α value, and diagnostic signature on the double-reciprocal plots (i.e Lineweaver-Burk plot) [S2].
α Inhibition modality Diagnostic signature on […]
α = 1 (inhibitor binds to free enzyme lines converge at the x-axis and enzyme-substrate complex
(inhibitor can bind to free lines converge to the left of the α > 1 enzyme and enzyme-substrate y-axis and above the x-axis complex unequally), inhibitor’s affinity is higher for free enzyme
(inhibitor can bind to free
α < 1 enzyme and enzyme-substrate lines converge to the left of the complex unequally), inhibitor’s y-axis and below the x-axis affinity is higher for the enzyme- […]
α → ∞ (inhibitor and substrate compete lines converge at the y-axis for the same site of binding) […]
α → 0 and α > 0 (inhibitor binds only to the parallel lines

[6] = concentration used in kinetic studies

T1 sequence (Q9Y5N1 whole entry): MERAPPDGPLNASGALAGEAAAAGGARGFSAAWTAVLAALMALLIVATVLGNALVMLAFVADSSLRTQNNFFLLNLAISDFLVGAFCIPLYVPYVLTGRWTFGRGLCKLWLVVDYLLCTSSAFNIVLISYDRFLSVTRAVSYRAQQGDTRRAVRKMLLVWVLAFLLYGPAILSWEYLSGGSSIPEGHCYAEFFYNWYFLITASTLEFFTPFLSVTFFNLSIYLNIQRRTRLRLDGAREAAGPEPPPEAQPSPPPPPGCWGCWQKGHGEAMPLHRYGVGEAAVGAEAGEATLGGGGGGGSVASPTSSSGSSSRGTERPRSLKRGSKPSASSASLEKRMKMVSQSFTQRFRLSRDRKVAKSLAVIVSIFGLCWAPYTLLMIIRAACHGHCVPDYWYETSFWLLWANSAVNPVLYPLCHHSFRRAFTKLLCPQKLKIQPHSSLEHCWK

SMILES	melting point [°C]	Ki [2] [nM]	IC50 (hMAO B [3]) [µM]	IC50 (human MAO A) [µM]	also measured
CC1NCCc2cc(O)c(O)cc21 (racemic) [SAL, (R,S)-salsolinol, reference compound]	–	–	–	–	cell survival of H2O2-damaged SH-SY5Y cells (neuroprotection) [1]: statistically significant increased cells viability
C#CCNC1CCc2cc(OCCCN3CCCCC3)ccc21 (stereo not shown) [Compound 1]	–	–	–	–	Ki (hH3R): 0.0067 µM
O=C1/C(=C/c2ccc(OCCCN3CCCCC3)cc2)Cc2cc(OCc3ccc(Br)cc3)ccc21 [Compound 2]	–	–	–	–	Ki (hH3R): 0.0065 µM
CCC(C)(C)c1ccc(OCCCN2CCCC2)cc1 [Compound 3]	–	–	–	–	Ki (hH3R): 0.063 µM
CC(C)(C)c1ccc(OCCCN2CCCC2)cc1.O=C(O)C(=O)O [Compound 5, 1-(3-(4-tert-Butylphenoxy)propyl)pyrrolidine hydrogen oxalate]	147 to 149	371	0.0027 ± 0.0004	–	effect of 30 min preincubation with enzyme on hMAO B inhibition (hMAO B [4]): did not show differences between experiments with and without the preincubation; type of hMAO B inhibition (reversible or irreversible) (hMAO B [4]): reversible
CC(C)(C)c1ccc(OCCCCN2CCCCC2)cc1.O=C(O)C(=O)O [Compound 6, 1-(4-(4-tert-Butylphenoxy)butyl)piperidine hydrogen oxalate]	150 to 152	309	0.29 ± 0.007	> 10	–
CC1CCCCN1CCCOc1ccc(C(C)(C)C)cc1.O=C(O)C(=O)O (stereo not shown) [Compound 9, 1-(3-(4-tert-Butylphenoxy)propyl)-2-methylpiperidine hydrogen oxalate]	114 to 116	69	0.011 ± 0.001	> 10	constant α (hMAO B [5]; calculated by GraphPad Prism from nonlinear regression, mixed-model inhibition): 1.6; mode of hMAO B inhibition (hMAO B [5]; from Vmax and KM behaviour and Lineweaver-Burk plot): mixed mode inhibition; Vmax (RFU/min) (hMAO B [5]; inhibitor concentration 0.2 nM): 1652 RFU/min; Vmax (RFU/min) (hMAO B [5]; inhibitor concentration 10 nM): 1544 RFU/min; Vmax (RFU/min) (hMAO B [5]; inhibitor concentration 40 nM): 1238 RFU/min; IC20 (hMAO B [3]; [6]): 0.0002 µM; IC80 (hMAO B [3]; [6]): 0.04 µM; effect of 30 min preincubation with enzyme on hMAO B inhibition (hMAO B [4]): did not show differences between experiments with and without the preincubation; type of hMAO B inhibition (reversible or irreversible) (hMAO B [4]): reversible
CC1CCCCN1CCCCOc1ccc(C(C)(C)C)cc1.O=C(O)C(=O)O (stereo not shown) [Compound 10, 1-(4-(4-tert-Butylphenoxy)butyl)-2-methylpiperidine hydrogen oxalate]	107 to 110	153	0.475 ± 0.038	> 10	–
CC1CCCN(CCCOc2ccc(C(C)(C)C)cc2)C1.O=C(O)C(=O)O (stereo not shown) [Compound 12, 1-(3-(4-tert-Butylphenoxy)propyl)-3-methylpiperidine hydrogen oxalate]	141 to 143	98	0.117 ± 0.012	> 10	–
CC1(C)CCCN(CCCOc2ccc(C(C)(C)C)cc2)C1.O=C(O)C(=O)O [Compound 16, 1-(3-(4-tert-Butylphenoxy)propyl)-3,3-dimethylpiperidine hydrogen oxalate]	183 to 186	1620	0.476 ± 0.038	> 10	–
CC1(C)CCCN(CCCCCOc2ccc(C(C)(C)C)cc2)C1.O=C(O)C(=O)O [Compound 18, 1-(5-(4-tert-Butylphenoxy)pentyl)-3,3-dimethylpiperidine hydrogen oxalate]	150 to 153	3540	–	> 10	inhibition at 10 µM (human MAO A): 19%
CC1(C)CCCN(CCCCCCOc2ccc(C(C)(C)C)cc2)C1.O=C(O)C(=O)O [Compound 19, 1-(6-(4-tert-Butylphenoxy)hexyl)-3,3-dimethylpiperidine hydrogen oxalate]	122 to 125	2580	–	> 10	inhibition at 10 µM (human MAO A): 24%
CC(C)(C)c1ccc(OCCCN2CCCCCC2)cc1.O=C(O)C(=O)O [Compound 28, 1-(3-(4-tert-Butylphenoxy)propyl)-azepane hydrogen oxalate]	138 to 140	111	0.045 ± 0.004	> 10	–
CC(C)(C)c1ccc(OCCCCN2CCCCCC2)cc1.O=C(O)C(=O)O [Compound 29, 1-(4-(4-tert-Butylphenoxy)butyl)-azepane hydrogen oxalate]	149 to 151	299	–	> 10	inhibition at 10 µM (human MAO A): 23%
C[C@H](NCc1ccc(OCc2cccc(F)c2)cc1)C(N)=O [safinamide, reference compound]	–	–	–	–	effect of 30 min preincubation with enzyme on hMAO B inhibition (hMAO B [4]): did not show differences between experiments with and without the preincubation
